These results are taken from ChEMBL document CHEMBL1151550, “High-affinity FKBP-12 ligands derived from (R)-()-carvone. Synthesis and evaluation of FK506 pyranose ring replacements” (Bioorg Med Chem Lett, 1995).

The target of this assay is Peptidyl-prolyl cis-trans isomerase FKBP1A (Homo sapiens, UniProt P62942). Kind of assay: Inhibitory activity of compound against FK506 binding protein 12 was determined. The settings on record: read-out: Ki app.
Chain of Peptidyl-prolyl cis-trans isomerase FKBP1A (P62942 whole entry): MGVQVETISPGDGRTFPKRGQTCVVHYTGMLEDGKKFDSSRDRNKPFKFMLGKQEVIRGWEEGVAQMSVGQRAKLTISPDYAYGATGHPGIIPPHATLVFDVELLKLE
Turning to `COC[C@@H]1CC[C@@H](C)[C@](O)(C(=O)C(=O)N2CCCC[C@H]2C(=O)OCc2ccccc2)C1`, the Ki was 258 nM.
In the case of `C/C=C\C(OC)[C@@H]1CC[C@@H](C)[C@](O)(C(=O)C(=O)N2CCCC[C@H]2C(=O)OCc2ccccc2)C1` (stereo partly specified) it was 112 nM.
In the case of `COC(C=C(C)C)[C@@H]1CC[C@@H](C)[C@](O)(C(=O)C(=O)N2CCCC[C@H]2C(=O)OCc2ccccc2)C1` (stereo partly specified) it was 68 nM.
In the case of `COC(C)[C@@H]1CC[C@@H](C)[C@](O)(C(=O)C(=O)N2CCCC[C@H]2C(=O)OCc2ccccc2)C1` (stereo partly specified) it was 81 nM; in that of `CC(C)[C@@H]1CC[C@@H](C)[C@](O)(C(=O)C(=O)N2CCCC[C@H]2C(=O)OCc2ccccc2)C1`, 210 nM.
Consider `COC(CC(C)C)[C@@H]1CC[C@@H](C)[C@](O)(C(=O)C(=O)N2CCCC[C@H]2C(=O)OCc2ccccc2)C1` (stereo partly specified), for which the Ki was 2.8 nM.
